Data set [1] relates to phytoheamagglutinin (PHA) activated T-cells. In words: 3H-Thymidine incorporated T-cell proliferation assay. It counts as cell-based, human. Conditions: for inhibition of T-cell proliferation (in words): PHA activated T-cells, 1-100 µg/mL; for IC50: read-out: T-cell proliferation inhibition (IC50± SD µg/mL). Here is the method: Lymphocytes were isolated from human heparinized blood. Briefly 10 mL of blood was aseptically collected in heparin containing tube from healthy volunteer. Blood was then mixed with equal volume (1:1) of incomplete RPMI (Roswell Park Memorial Institute) media in 50 mL sterile falcon tube. Lymphocyte separation media (LSM) (5 mL) was added into two sterile 15 mL falcon tubes and 10 mL of the mixture containing blood and RPMI was gently layered on LSM in each tube. Tubes were then centrifuged at 400 g for 20 min at room temperature. The buffy layer appeared at the interface of LSM and plasma was carefully collected and washed at 4 °C for 10 min at 300 g. The supernatant was discarded and pellet containing peripheral blood mononuclear cells (PBMNCs) was collected. Cell viability and counting was performed using trypan blue dye. ^3H-Thymidine incorporated T-cell proliferation assay was performed as described by […] et al. ([2009]). […] After that 50 μL of isolated PBMNCs were added at a concentration of (2 × 10^6 cell/mL). Cells were then stimulated by adding 50 μL of 7.5 μg/mL […]) which acts as mitogen only for T-cells among other PBMNCs. […] The wells received 50 μL cells and 150 μL of 5% FCS/RPMI served as negative control where as positive control contains 50 μL cells, 50 μL of PHA-L and 100 μL of 5% FCS/RPMI. […] Plates were then incubated for 72 h at 37 °C in 5% CO2 incubator. After 72 h, cultures were pulsed with 25 μL of 0.5 μCi/well ^3H-thymidine [Hartmann Analytic, Braunschweig, Germany], and plates were further incubated for 18 h. After incubation cells were harvested using a glass fibre filter and cell harvester [Inotech, Dottikon, Switzerland]. The level of the ^3H-thymidine incorporated into the cells was measured by a LS65000 liquid scintillation counter [Beckman coulter, Fullerton, CA, USA]. Results were expressed as mean count per minutes (CPM). The 50% inhibitory concentration (IC50) values were calculated for all tested compounds.

A short description of data set [2]: MTT cytotoxicity assay. It counts as cell-based. Conditions: mouse. Here is the method: (§1) Cytotoxicity of test compounds on NIH-3T3 fibroblast cells (ATCC, Manassas, VA, USA) was evaluated by using the standard MTT colorimetric assay. Briefly 100 μL of 5 × 10^4 cells/mL in Dulbacco’s modified eagles medium (DMEM) supplemented with 10% foetal bovine serum (FBS) were plated into 96-wells flat bottom plate and incubated overnight at 37 °C in 5% CO2. Three different concentrations of test compound (1, 10 and 100 µg/mL) were added to the plate in triplicates and incubated for 48 h. 0.5 mg/mL MTT (50 µL) was added to each well, the plate was then further incubated for 4 h. MTT was aspirated and 100 µL of dimethyl sulfoxide (DMSO) was then added to each well. The extent of MTT reduction to formazan within cells was calculated by measuring the absorbance at 540 nm, using spectrophotometer (Spectra Max plus, Molecular Devices, CA, USA). The cytotoxic activity was recorded as concentration causing 50% growth inhibition (IC50) for 3T3 cells. Cycloheximide was used as standard drug.
(In general: Tetrazolium assays rely on reduction of a dye to a coloured formazan, in cell work by metabolically active cells.)

Data set [3] relates to serum opsonized zymosan activated whole blood phagocytes (intracellular ROS production). The experiment in a line: Oxidative burst assay (luminol-enhanced chemiluminescence). The format is cell-based, human. To be noted: for IC50: read-out: ROS inhibition (IC50± SD µg/mL); for inhibition of production of ROS (in words): zymosan activated whole blood phagocytes, 1-100 µg/mL.
For data set [4], the system named is NIH-3T3 fibroblast cells. In words: MTT cytotoxicity assay. The format is cell-based. To be noted: MTT, 48 h; three doses (1, 10 and 100 µg/mL); mean ± SD of three determinations. The protocol: as §1
The subject of data set [5] is whole blood lymphocyte proliferation. Set-up: method as in Magee et al. [2002]. To be noted: similar work; ref Magee et al. [2002]; cited from earlier work.
Setting [6] is: T-cell, PHA-L activated human T-cells, 72 h + 18 h 3H-thymidine, three doses (1, 10 and 100 µg/mL), mean ± SD of three determinations.
[7] abbreviates: zymosan activated human whole blood phagocytes, luminol probe, three doses (1, 10 and 100 µg/mL), mean ± SD of three determinations.
[8] abbreviates: MTT, 48 h, three doses (1, 10 and 100 µg/mL), mean ± SD of three determinations, read-out: Cytotoxicity on NIH 3T3-cells (IC50± SD µg/mL).

Converted amounts (≈) assume the structure as drawn. Where two headings read alike, the source gives them in different places. A value given as a limit tells only on which side of the number the result lay.

Regarding `CC1(C)CC[C@]2(C(=O)O)CC[C@]3(C)C(=CC[C@@H]4[C@@]5(C)CC[C@H](O)[C@@](C)(CO)[C@@H]5CC[C@]43C)[C@@H]2C1` [Compound 1, 3, 23-dihydroxy-12-oleanen-28-oic acid], the “inhibition of T-cell proliferation (in words)” value in data set [1] is given as “no inhibition”. For the same compound, the values for the IC50 in data set [1] (setting [6]) and in data set [3] (setting [7]) were greater than 100 µg/mL and 24.4 ± 4.3 µg/mL, respectively. For the same compound, the IC50 at 48 h in data set [2] was greater than 100 µg/mL.

`CC1(C)CC[C@]2(C(=O)O)CC[C@]3(C)C(=CC[C@@H]4[C@@]5(C)CC[C@H](O)C(C)(C)[C@@H]5CC[C@]43C)[C@@H]2C1` [Compound 2, 3β-hydroxylolean-12-en-28-oic]: the values for the IC50 in data set [1] (setting [6]) and in data set [3] (setting [7]) were 12.6 ± 0.4 µg/mL and 37.5 ± 0.1 µg/mL, respectively. For the same compound, the IC50 at 48 h in data set [2] (NIH-3T3 fibroblast cells, MTT, 48 h, three doses (1, 10 and 100 µg/mL), mean ± SD of three determinations, read-out: Cytotoxicity on NIH 3T3-cells (IC50± SD µg/mL)) is greater than 100 µg/mL.

Regarding `CC[C@H](/C=C/[C@@H](C)[C@H]1CC[C@H]2[C@@H]3CC=C4C[C@@H](O)CC[C@]4(C)[C@H]3CC[C@]12C)C(C)C` [Compound 3, stigmasterol], the IC50 in data set [2] (setting [8]) and in data set [3] (setting [7]) was greater than 100 µg/mL throughout. In data set [3], the “inhibition of production of ROS (in words)” value is on record as “did not inhibit”.

Consider `CC[C@H](/C=C/[C@@H](C)[C@H]1CC[C@H]2[C@@H]3CC=C4C[C@@H](O[C@@H]5O[C@H](CO)[C@@H](O)[C@H](O)[C@H]5O)CC[C@]4(C)[C@H]3CC[C@]12C)C(C)C` [Compound 4, 3-O-β-D-glucopyranosyl stigmasterol], for which, in data set [1], the “inhibition of T-cell proliferation (in words)” value is “no inhibition”. Moreover, the “T-cell proliferation inhibition (IC50± SD µg/mL)” value in data set [1] (PHA-L activated human T-cells, 72 h + 18 h 3H-thymidine, three doses (1, 10 and 100 µg/mL), mean ± SD of three determinations) is listed as greater than 100 µg/mL. Besides, in data set [4], the “Cytotoxicity on NIH 3T3-cells (IC50± SD µg/mL)” value is greater than 100 µg/mL. The “ROS inhibition (IC50± SD µg/mL)” value in data set [3] (setting [7]) is greater than 100 µg/mL. Moreover, the “inhibition of production of ROS (in words)” value in data set [3] is on record as “did not inhibit”.

In the case of `C[C@@H]1C[C@@H]([C@H](O)CC2CC(=O)NC(=O)C2)C(=O)[C@@H](C)C1` [Cyclohexamide, Cycloheximide, reference compound], the IC50 at 48 h in data set [2] (setting [8]) stood at 0.13 ± 0.02 µg/mL (≈ 0.462 µM).

Regarding `CC(C)Cc1ccc(C(C)C(=O)O)cc1` (centres unmarked) [Ibuprofen, reference compound], in data set [3] (setting [7]), the IC50 came to 11.2 ± 1.9 µg/mL.

In the case of `C[C@]12C=CC(=O)C=C1CC[C@@H]1[C@@H]2[C@@H](O)C[C@@]2(C)[C@H]1CC[C@]2(O)C(=O)CO` [Prednisolone, prednisolone, reference compound], the inhibition at 0.62 µg/mL in data set [1] (Homo sapiens, T-cell, at lowest tested concentration (0.62 µg/mL), PHA activator) came to 64.3 ± 2%. Besides, in data set [1] (setting [6]), the IC50 was less than 0.62 µg/mL. The “IC50 of prednisolone (lymphocyte proliferation)” value in data set [5] is 38.8 ng/mL.

Usually inhibition stands for the percentage by which the read-out fell short of the control.

Source of the values: paper PMC6130543, “Immunomodulatory activities of isolated compounds from the root-bark of Cussonia arborea” (Pharmaceutical Biology, 2017).
